# Source: patent publication US20240327415A1, “Multicomponent Complexes, Including Salts, Crystalline Forms, and Hydrates and Solvates of ENT1 Inhibitors” (iTeos Belgium SA, priority 2023, published 2024)
# Counter-ions that a name gives are not always drawn.
# Assays:
# Format in all cases: physicochemical
# [1] = solution stability in 1-propanol:water (80:20% v/v) at 50° C. (Example 8)
# Procedure: Example 8-Solution Stability of Compound 1 di(hydrogen sulfate): As per Table 44, weighed amounts (mg) of Compound 1 (free base) were added to 5×1.5 mL screw cap vials. Sulfuric acid equivalents were added to each vial as solutions in volumes of 1-propanol: water (80:20% v/v) as further set forth in Table 44. Salt formation occurred in situ. The target free base concentration was about 186 mg/mL. The solutions were stirred at 50° C. for about 24 hours. […] Subsamples (50 μL) of the solutions were extracted for HPLC analysis after 2, 4, 6, and 23 hours of stirring at 50° C.
# [2] = Variable Temperature X-Ray Powder Diffraction (VT-XRPD); design: key: M4: Crystalline Form 4 mono(hydrogen sulfate); M8: Crystalline Form 8 mono(hydrogen sulfate); Amorphous mono(hydrogen sulfate)
# Procedure: In the examples below, VT-XRPD analysis was carried out on a Philips X'Pert Pro Multipurpose diffractometer equipped with a temperature chamber. The samples were scanned between 4 and 36° 2θ using Cu K radiation (α1 λ=1.54060 Å; α2=1.54443 Å; β=1.39225 Å; α1: α2 ratio=0.5; most, if not all, B radiation is removed from the beam using an X-ray mirror) running in Bragg-Brentano geometry (step size 0.008° 2θ) using 40 kV/40 mA generator settings. Measurements were carried out from ambient temperature to an upper limit of 250° C., with a final measurement taken after cooling.
# VT-XRPD analysis was carried out on a Philips X'Pert Pro Multipurpose diffractometer equipped with a temperature chamber. The samples were scanned between 4 and 36° 2θ using Cu K radiation (α1 λ=1.54060 Å; α2=1.54443 Å; β2=1.39225 Å; α1:α2 ratio=0.5; most, if not all, β radiation is removed from the beam using an X-ray mirror) running in Bragg-Brentano geometry (step size 0.008° 2θ) using 40 kV/40 mA generator settings. Measurements were carried out from ambient temperature to an upper limit of 250° C., with a final measurement taken after cooling.
# [3] = particle size distribution (Mastersizer 2000)
# Procedure: In Example 5, the particle size distribution of solids was measured using a Mastersizer 2000 instrument and the method is detailed below.
# [4] = 1-propanol:water (80:20% v/v), 50° C., Acid Equiv. 1.90
# [5] = 1-propanol:water (80:20% v/v), 50° C., Acid Equiv. 1.95
# [6] = 1-propanol:water (80:20% v/v), 50° C., Acid Equiv. 2.00
# [7] = 1-propanol:water (80:20% v/v), 50° C., Acid Equiv. 2.05
# [8] = 1-propanol:water (80:20% v/v), 50° C., Acid Equiv. 2.10
# [9] = After complete equilibration, 3 days post-drying (moisture content = 6.07%)
# [10] = Before complete equilibration, 24 hr post-drying (moisture content = 4.33%)
smiles,measurement,setting,value
COc1cc(C(=O)O[C@@H]2CCCOc3cc(cc(OC)c3OC)C(=O)NCCCN3CCCN(CC2)CC3)cc(OC)c1OC [Compound 1 di(hydrogen sulfate)],lowering of purity at the T23h timepoint versus earlier samples,"[1]; 1-propanol:water (80:20% v/v), 50° C.",about 0.8 % area
same,solution purity,"[1]; 1-propanol:water (80:20% v/v), 50° C., 2, 4, 6 and 23 hours",98.7-99.7 % area
same,HPLC Conc. T2 h,[1]; [4],176 mg/mL
same,HPLC Conc. T4 h,[1]; [4],167 mg/mL
same,HPLC Conc. T6 h,[1]; [4],183 mg/mL
same,HPLC Conc. T23 h,[1]; [4],164 mg/mL
same,HPLC Purity T2 h,[1]; [4],99.70 % area
same,HPLC Purity T4 h,[1]; [4],99.67 % area
same,HPLC Purity T6 h,[1]; [4],99.58 % area
same,HPLC Purity T23 h,[1]; [4],98.94 % area
same,HPLC Conc. T2 h,[1]; [5],175 mg/mL
same,HPLC Conc. T4 h,[1]; [5],169 mg/mL
same,HPLC Conc. T6 h,[1]; [5],179 mg/mL
same,HPLC Conc. T23 h,[1]; [5],162 mg/mL
same,HPLC Purity T2 h,[1]; [5],99.60 % area
same,HPLC Purity T4 h,[1]; [5],99.61 % area
same,HPLC Purity T6 h,[1]; [5],99.53 % area
same,HPLC Purity T23 h,[1]; [5],99.00 % area
same,HPLC Conc. T2 h,[1]; [6],170 mg/mL
same,HPLC Conc. T4 h,[1]; [6],165 mg/mL
same,HPLC Conc. T6 h,[1]; [6],169 mg/mL
same,HPLC Conc. T23 h,[1]; [6],170 mg/mL
same,HPLC Purity T2 h,[1]; [6],99.66 % area
same,HPLC Purity T4 h,[1]; [6],99.58 % area
same,HPLC Purity T6 h,[1]; [6],99.43 % area
same,HPLC Purity T23 h,[1]; [6],98.78 % area
same,HPLC Conc. T2 h,[1]; [7],166 mg/mL
same,HPLC Conc. T4 h,[1]; [7],165 mg/mL
same,HPLC Conc. T6 h,[1]; [7],173 mg/mL
same,HPLC Conc. T23 h,[1]; [7],165 mg/mL
same,HPLC Purity T2 h,[1]; [7],99.68 % area
same,HPLC Purity T4 h,[1]; [7],99.52 % area
same,HPLC Purity T6 h,[1]; [7],99.42 % area
same,HPLC Purity T23 h,[1]; [7],98.85 % area
same,HPLC Conc. T2 h,[1]; [8],166 mg/mL
same,HPLC Conc. T4 h,[1]; [8],164 mg/mL
same,HPLC Conc. T6 h,[1]; [8],168 mg/mL
same,HPLC Conc. T23 h,[1]; [8],167 mg/mL
same,HPLC Purity T2 h,[1]; [8],99.60 % area
same,HPLC Purity T4 h,[1]; [8],99.62 % area
same,HPLC Purity T6 h,[1]; [8],99.47 % area
same,HPLC Purity T23 h,[1]; [8],98.89 % area
same,overall solution stability,[1]; 1-propanol:water solvent system at 50° C.,substantial stability
same,concentration of the solutions by HPLC,"[1]; input free base concentration 186 mg/mL, 50° C.",162000 to 183000 µg/mL
COc1cc(C(=O)O[C@@H]2CCCOc3cc(cc(OC)c3OC)C(=O)NCCCN3CCCN(CC2)CC3)cc(OC)c1OC.O=S(=O)(O)O,VT-XRPD Results,"[2]; Cooling, 30° C., hold 10 min",M8
same,VT-XRPD Results,"[2]; Heating, 40° C., hold 60 min",M8
same,VT-XRPD Results,"[2]; Heating, 50° C., hold 60 min",M8
same,VT-XRPD Results,"[2]; Heating, 70° C., hold 60 min",M8
same,VT-XRPD Results,"[2]; second Heating, 50° C., hold 60 min",M8
same,VT-XRPD Results,"[2]; second Heating, 70° C., hold 60 min",M8
same,VT-XRPD Results,"[2]; second Heating, 90° C., hold 60 min",Amorphous
same,VT-XRPD Results,"[2]; second Heating, 100° C., hold 60 min",Amorphous
same,VT-XRPD Results,"[2]; second Heating, 110° C., hold 60 min",Amorphous
CCCN1CCNCCCNC(=O)c2cc(OC)c(OC)c(c2)OCCC[C@@H](OC(=O)c2cc(OC)c(OC)c(OC)c2)CC1,D10,[3]; [9],6.32 μm
same,D50,[3]; [9],32.90 μm
same,D90,[3]; [9],84.73 μm
same,D10,[3]; [10],17.596 μm
same,D50,[3]; [10],46.785 μm
same,D90,[3]; [10],109.799 μm
